Measurements from paper PMC8894159, “Paltusotine, a novel oral once-daily nonpeptide SST2 receptor agonist, suppresses GH and IGF-1 in healthy volunteers” (Pituitary, 2022).
Several values for one entry are separate records, joined by “and”; a condition that tells them apart may be missing. Identical values can stand only once. Like-named read-outs stand apart in the source and are kept apart here.

Tests used:
[1] = Multiple ascending dose plasma pharmacokinetics in healthy volunteers; format: in vivo, human; details: for Cmax / Tmax / AUC(0-t) / half-life: human, plasma, oral; for AUC(0-t): read-out: AUC0-24
Description: In the single-dose phase, participants were randomized 6:2 to paltusotine (1.25, 2.5, 5, 10, 20, 40, and 60 mg) or placebo in 7 cohorts (S1 to S7). Cohorts comparing oral bioavailability of solution versus capsules and the effect of a standardized high-fat, high-calorie breakfast on oral bioavailability of the capsule formulation employed the 10 mg dose level. In the multiple-dose phase, participants were randomized 6:3 to once-daily oral paltusotine capsules or placebo at doses of 5 mg for 7 days (M1, Day Last = Day 7), and 10, 20, and 30 mg daily for 10 days (M2, M3, M4, Day Last = Day 10). The initial starting dose of 1.25 mg in the single-dose phase was selected for this study based on nonclinical pharmacologic activity, pharmacokinetics, and safety studies. Subsequent doses were either specified in the protocol or were selected by the safety review committee responsible for the safety oversight of the study.
Single-dose cohorts: Plasma samples were collected on Day 1 (pre-dose, every 15 min up to 90 min post-dose, then at 2, 3, 4, 6, 8, 10, 12, 18, 24, 48, 72, 96, 120, and 144 h post-dose). Multiple-dose cohorts: For the 5 mg cohort, plasma samples were collected on Day 1 (pre-dose, every 15 min up to 90 min post-dose, then at 2, 3, 4, 6, 8, 10, 12, and 18 h post-dose), Days 2–6 (pre-dose and 2 h post-dose), Day 7 (same time points as Day 1, followed by samples at 18, 24, 48, 72, 96, 120, and 144 h post-dose). For all other multiple-dose cohorts, plasma samples were collected on Day 1 (pre-dose, every 15 min up to 90 min post-dose, then at 2, 3, 4, 6, 8, 10, 12, and 18 h post-dose), Days […] (same time points as Day 1, followed by samples at 18, 24, 48, 72, 96, 120, 144, 192, and 240 h post-dose).
Plasma pharmacokinetic sample analysis for paltusotine was determined using validated procedures by CPR Pharma Services (Thebarton, Australia). Briefly, plasma paltusotine concentrations were determined by high-pressure liquid chromatography (HPLC) coupled with tandem mass spectrometry detection (MS/MS). Deuterated paltusotine was used as an internal standard. Supported liquid extraction was used to extract paltusotine and the internal standard. The analyte was separated by HPLC using an ACE C18-AR column (Advanced Chromatography Technologies, Ltd, Aberdeen, Scotland), and the eluates were monitored by an API 4000™ LC–MS/MS System (Sciex, Framingham, MA) in positive multiple reaction monitoring mode. The extract was then assayed against a calibration curve. The data were acquired and integrated by the data acquisition software Analyst® (Sciex), linked directly to the API 4000™ LC–MS/MS System, and then processed using Watson LIMS™ software (Thermo Scientific, Waltham, MA), where applicable. The calibration range was 0.100 to 100 ng/mL using 100 μL of plasma, with a lower limit of quantification of 0.100 ng/mL. The inter-assay accuracy was 94% to 100%, and the inter-assay precision (% CV) was between 6.1% and 15%.
For assessing pharmacokinetics of paltusotine, the single-dose pharmacokinetic population included all randomized participants who received any amount of study drug with sufficient plasma concentration data. For the multiple-dose cohorts, only participants who received all doses were included. The relative bioavailability of the capsule formulation was determined by comparing its pharmacokinetic parameters with those of the solution formulation at the 10 mg dose. Food effect was determined at the same dose by comparing pharmacokinetic parameters in the fasting state to those when paltusotine was administered with a high-fat, high-calorie meal. For both formulation and food effect, ANOVA with treatment as a fixed effect and subject as a random effect was performed. Data for peak concentration (Cmax), AUC0-last, and AUC0-inf were natural log-transformed.

[2] = system: stimulated-GH and IGF-1 secretion; design: method as in ref 13 = [13]; 13. Betz SF Markison S Kusnetzow AK Athanacio JD Rico-Bautista E Madan A Suppression of growth hormone and insulin-like growth factor 1 in rats after oral administration of CRN00808, a small molecule; details: cited from earlier work
[3] = 5 mg, 5 mg capsules once daily, Day 1, mean ± SD
[4] = 5 mg, 5 mg capsules once daily, Day 7, mean ± SD
[5] = 10 mg, 10 mg capsules once daily, Day 1, mean ± SD
[6] = 10 mg, 10 mg capsules once daily, Day 10, mean ± SD
[7] = 20 mg, 20 mg capsules once daily, Day 1, mean ± SD
[8] = 20 mg, 20 mg capsules once daily, Day 10, mean ± SD
[9] = 30 mg, 30 mg capsules once daily, Day 1, mean ± SD
[10] = 30 mg, 30 mg capsules once daily, Day 10, mean ± SD

SMILES: Cl.N#Cc1cccc(-c2ccc3ncc(-c4cc(F)cc(F)c4)c(N4CCC(N)CC4)c3c2)c1O [paltusotine, 3-[4-(4-Aminopiperidin-1-yl)-3-(3,5-difluorophenyl)quinolin-6-yl]-2-hydroxybenzonitrile hydrochloride]
- Ctrough ([1]; 5 mg capsules once daily, Day 7, mean ± SD): 10.8 ± 5.11 ng/mL
- Ctrough ([1]; 10 mg capsules once daily, Day 10, mean ± SD): 22.2 ng/mL and 22.2 ± 7.38 ng/mL
- Ctrough ([1]; 20 mg capsules once daily, Day 10, mean ± SD): 37.9 ± 11.4 ng/mL
- Ctrough ([1]; 30 mg capsules once daily, Day 10, mean ± SD): 51.1 ± 32.0 ng/mL
- Cmax [1, 3]: 16.8 ± 7.22 ng/mL
- Tmax [1, 3]: 1.2 ± 0.1 h
- AUC(0-t) [1, 3]: 167 ± 73.4 ng·h/mL
- half-life ([1]; 5 mg, 5 mg capsules once daily, Day 7, sampling to 144 h, mean ± SD, read-out: t1/2 (converted)): 34 ± 4.7 h
- Cmax [1, 4]: 35.5 ± 12 ng/mL
- Tmax [1, 4]: 2.1 ± 0.6 h
- AUC(0-t) [1, 4]: 421 ± 163 ng·h/mL
- Cmax [1, 5]: 78.7 ± 45.3 ng/mL
- Tmax [1, 5]: 1.8 ± 0.9 h
- AUC(0-t) [1, 5]: 661 ± 340 ng·h/mL
- half-life ([1]; 10 mg, 10 mg capsules once daily, Day 10, sampling to 240 h, mean ± SD, read-out: t1/2 (converted)): 42 ± 5 h
- Cmax [1, 6]: 75.5 ± 37.4 ng/mL
- Tmax [1, 6]: 3 ± 1.8 h
- AUC(0-t) [1, 6]: 956 ± 371 ng·h/mL
- Cmax [1, 7]: 88.7 ± 43.3 ng/mL
- Tmax [1, 7]: 2.4 ± 0.8 h
- AUC(0-t) [1, 7]: 811 ± 409 ng·h/mL
- half-life ([1]; 20 mg, 20 mg capsules once daily, Day 10, sampling to 240 h, mean ± SD, read-out: t1/2 (converted)): 50 ± 6.6 h
- Cmax [1, 8]: 132 ± 79.2 ng/mL
- Tmax [1, 8]: 1.6 ± 0.4 h
- AUC(0-t) [1, 8]: 1560 ± 733 ng·h/mL
- Cmax [1, 9]: 78.2 ± 60.7 ng/mL
- Tmax [1, 9]: 1.4 ± 0.9 h
- AUC(0-t) [1, 9]: 578 ± 411 ng·h/mL
- half-life ([1]; 30 mg, 30 mg capsules once daily, Day 10, sampling to 240 h, mean ± SD, read-out: t1/2 (converted)): 46 ± 7.4 h
- Cmax [1, 10]: 154 ± 102 ng/mL
- Tmax [1, 10]: 4.5 ± 2.1 h
- AUC(0-t) [1, 10]: 2080 ± 1220 ng·h/mL
- half-life ([1]; conclusion summary, read-out: approximate t1/2): 24 to 48 h
- half-life ([1]; multiple dose 10-30 mg range, sampling to 240 h after last dose, read-out: mean t1/2): 42 to 50 h
- stimulated-GH and IGF-1 secretion in rats [2]: suppresses stimulated-GH and IGF-1 secretion
